Where a SMILES comes first, the peptide text is derived from it.
Tests used:
[1] = stability in water at 80°C for 8 days, checked by HPLC; type: physicochemical; settings: 200 mg in 20 ml water, 8 days at 80°C, freeze-dried, HPLC detection at 220 nm
Description: • a) 200 mg Ac-Met(O₂)-Glu-His-Phe-D-Lys-Phe-NH(CH₂)₈-NH₂ · 2 CH₃COOH wurden in 20 ml Wasser gelöst und 8 Tage auf 80°C erhitzt. Nach dem Abkühlen wurde gefriergetrocknet.

[2] = system: Scopolamin-induzierte Amnesie; test: radial-maze test (8-arm radial maze), reversal of scopolamine-induced amnesia; type: in vivo, Ratten; settings: Rattus norvegicus, po, rats, comparison compound, read-out: MED (minimal effektive Dosis)
From the text: (§1) Die erfindungsgemäße Verbindung ist aufgrund ihrer pharmakologischen Eigenschaften für die Behandlung cognitiver Dysfunktionen unterschiedlicher Genese, wie sie z.B. bei der Alzheimer'schen Krankheit oder der senilen Demenz auftreten, geeignet. Die Verbesserung cognitiver Funktionen durch die erfindungsgemäßen Verbindungen (nootrope Wirkung) wurde im Tierexperiment an Mäusen mittels des inhibitory (passive) avoidance-Tests (step-through-Modell) und an Ratten mittels des radial-maze-Tests (8-armiger radialer Irrgarten) geprüft. Es handelt sich hierbei um literaturbeschriebene Standardtests zur Prüfung von Lern-und Gedächtnisfunktionen im Tierexperiment. (Inhibitory avoidance J. Bures, O. Buresova und J. Huston in "Techniques and Basic Experiments for the Study of Brain and Behavior", Elsevier Scientific Publishers, Amsterdam 1983; Radial Maze: U. Stäubli, M. Baudry und G. Lynch, Behavioral and Neural Biology 40, 58-69 (1984).)
(§2) Entsprechend den genannten Literaturangaben wird eine Substanz dann als nootrop wirksam bezeichnet, wenn sie bei den Versuchstieren der durch Scopolamin, Elektroschock oder Inhibitoren der Proteinsynthese induzierte Erhöhung der Fehlerrate in diesen Tests entgegenwirkt oder sie gar aufzuheben vermag.
(§3) Die Versuche wurden nach den obenbeschriebenen Testverfahren durchgeführt. […]

[3] = system: Scopolamin-induzierte Amnesie; test: inhibitory (passive) avoidance test (step-through model), reversal of scopolamine-induced amnesia; type: in vivo, Mäusen; settings: Mus musculus, po, mice, comparison compound, read-out: MED (minimal effektive Dosis)
From the text: as §1, §2, §3

Structure (SMILES)	Zersetzung (HPLC-Untersuchung) [1]	minimal effective dose [2] [mg/kg]	minimal effective dose [3] [mg/kg]
CC(=O)N[C@@H](CCS(C)(=O)=O)C(=O)N[C@@H](CCC(=O)O)C(=O)N[C@@H](Cc1c[nH]cn1)C(=O)N[C@@H](Cc1ccccc1)C(=O)N[C@H](CCCCN)C(=O)N[C@@H](Cc1ccccc1)C(=O)NCCCCCCCCN [Ac-Met(O₂)-Glu-His-Phe-D-Lys-Phe-NH-(CH₂)₈-NH₂ · 2 CH₃COOH] (HELM PEPTIDE1{[ac].[CS(=O)(=O)CC[C@H](N[*:1])C(=O)[*:2]].E.H.F.[dK].F.[NCCCCCCCCN[*:1]]}$$$$V2.0)	keine Zersetzung		
CS(=O)(=O)CC[C@H](N)C(=O)N[C@@H](CCC(=O)O)C(=O)N[C@@H](Cc1c[nH]cn1)C(=O)N[C@@H](Cc1ccccc1)C(=O)N[C@H](CCCCN)C(=O)N[C@@H](Cc1ccccc1)C(=O)NCCCCCCCCN [H-Met(O₂)-Glu-His-Phe-D-Lys-Phe-NH-(CH₂)₈-NH₂] (HELM PEPTIDE1{[CS(=O)(=O)CC[C@H](N)C(=O)[*:2]].E.H.F.[dK].F.[NCCCCCCCCN[*:1]]}$$$$V2.0)	starke Zersetzung		
NC(=O)CN1CCCC1=O [Piracetam, 2-Oxo-1-pyrrolidinylessigsäureamid]		500 to 1000	500 to 1000

Reference: EP0424670B1, “ZNS-active hexapeptides with antiamnestic activity” (HOECHST AKTIENGESELLSCHAFT, priority 1989, dated 1995)
